Assays:
johnsongrass = experiment: Test C preemergence; format: in vivo, Sorghum halepense; settings: Sorghum halepense, pre-emergence
Outline: (§1)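 Rated visually on 0–100 (100 = complete control) after 13–15 days under glass. Treatments went onto freshly seeded loam/sand soil or onto emerged plants at the 1- to 4-leaf stage, using a surfactant-containing solvent formulation.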

large (Lg) crabgrass = experiment: Test A preemergence; format: in vivo, Digitaria sanguinalis; settings: Digitaria sanguinalis, pre-emergence, 240 h, read-out: Crabgrass, Large plant response rating
Outline: (§2)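 Injury scores run from 0, no effect, to 100, complete control, judged by eye against untreated plants roughly 10 days after treatment. Chemicals carried a surfactant in a non-phytotoxic solvent and went onto loam–sand soil preemergence or onto one- to two-leaf seedlings postemergence.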

velvetleaf [1] = experiment: Test A preemergence; format: in vivo, Abutilon theophrasti; settings: Abutilon theophrasti, pre-emergence, 240 h, read-out: Velvetleaf plant response rating
Outline: as §2

pigweed [2] = experiment: Test A preemergence; format: in vivo, Amaranthus retroflexus; settings: Amaranthus retroflexus, pre-emergence, 240 h, read-out: Pigweed plant response rating
Outline: as §2

corn = experiment: Test A postemergence; format: in vivo, Zea mays; settings: Zea mays, post-emergence, 240 h
Outline: as §2

pigweed [3] = experiment: Test C postemergence; format: in vivo, Amaranthus retroflexus; settings: Amaranthus retroflexus, post-emergence
Outline: as §1

ragweed [4] = experiment: Test C preemergence; format: in vivo, Ambrosia elatior; settings: Ambrosia artemisiifolia, pre-emergence
Outline: as §1

ragweed [5] = experiment: Test C postemergence; format: in vivo, Ambrosia elatior; settings: Ambrosia artemisiifolia, post-emergence
Excerpt: (§3) Seeds of plant species selected from blackgrass (Alopecurus myosuroides), Italian ryegrass (Lolium multiflorum), wheat, winter (winter wheat, Triticum aestivum), galium (catchweed bedstraw, Galium aparine), corn (Zea mays), large (Lg) crabgrass (Digitaria sanguinalis), giant foxtail (Setaria faberii), johnsongrass (Sorghum halepense), lambsquarters (Chenopodium album), morningglory (Ipomoea coccinea), yellow nutsedge (Cyperus esculentus), pigweed (Amaranthus retroflexus), ragweed (common ragweed, Ambrosia elatior), soybean (Glycine max), barnyardgrass (Echinochloa crus-galli), oilseed rape (Brassica napus), waterhemp (common waterhemp, Amaranthus rudis), kochia (Kochia scoparia), wild oat (Avena fatua), surinam grass (Brachiaria decumbens), foxtail, green (green foxtail, Setaria viridis), goosegrass (Eleusine indica), bromegrass, downy (downy bromegrass, Bromus tectorum), nightshade (eastern black nightshade, Solanum ptycanthum), cocklebur (common cocklebur, Xanthium strumarium), cupgrass, woolly (woolly cupgrass, Eriochloa villosa), bermudagrass (Cynodon dactylon), sunflower, (common oilseed sunflower, Helianthus annuus), Russian thistle (Salsola kali), and velvetleaf (Abutilon theophrasti) were planted into a blend of loam soil and sand and treated preemergence with test chemicals formulated in a non-phytotoxic solvent mixture which included a surfactant.
(§4) At the same time, plants selected from these crop and weed species and also barley, winter (winter barley, Hordeum vulgare), windgrass (Apera spica-venti), chickweed (common chickweed, Stellaria media), deadnettle (henbit deadnettle, Lamium amplexicaule), and canarygrass (littleseed canarygrass, Phalaris minor) were planted in pots containing Redi-Earth® planting medium (Scotts Company, 14111 Scottslawn Road, Marysville, Ohio 43041) comprising spaghnum peat moss, vermiculite, wetting agent and starter nutrients and treated with postemergence applications of test chemicals formulated in the same manner. Plants ranged in height from 2 to 18 cm (1- to 4-leaf stage) for postemergence treatments. Treated plants and controls were maintained in a greenhouse for 13 to 15 days, after which time all species were compared to controls and visually evaluated. Plant response ratings, summarized in Table C, are based on a scale of 0 to 100 where 0 is no effect and 100 is complete control. A dash (-) response means no test result.

velvetleaf [6] = experiment: Test C postemergence; format: in vivo, Abutilon theophrasti; settings: Abutilon theophrasti, post-emergence
Outline: as §1

giant foxtail = experiment: Test C preemergence; format: in vivo, Setaria faberii; settings: Setaria faberi, pre-emergence
Outline: as §1

morningglory = experiment: Test A preemergence; format: in vivo, Ipomoea spp.; settings: Ipomoea, pre-emergence, 240 h, read-out: Morningglory plant response rating
Outline: as §2

wheat = experiment: Test A postemergence; format: in vivo, Triticum aestivum; settings: Triticum aestivum, post-emergence, 240 h
Outline: as §2

galium = experiment: Test C postemergence; format: in vivo, Galium aparine; settings: Galium, post-emergence
Excerpt: as §3, §4

soybean = experiment: Test C preemergence; format: in vivo, Glycine max; settings: Glycine max, pre-emergence
Outline: as §1

[7] = 125 g ai/ha, 0 to 100 scale where 0 is no effect and 100 is complete control
[8] = 500 g ai/ha, 0 to 100 scale, 0 no effect, 100 complete control, approx. 10 days

Q: Which results are given for `Clc1cnc(Oc2ccccc2-n2cc(Br)cn2)nc1` [Compound 7, 2-[2-(4-bromo-1H-pyrazol-1-yl)phenoxy]-5-chloropyrimidine]?
A: pest or weed control at 62 g/ha (johnsongrass; 62 g ai/ha, preemergence, scale 0 (no effect) to 100 (complete control), read-out: Johnsongrass plant response rating): 5%; pest or weed control at 125 g/ha (johnsongrass; 125 g ai/ha, preemergence, scale 0 (no effect) to 100 (complete control), read-out: Johnsongrass plant response rating): 10%; pest or weed control at 250 g/ha (johnsongrass; 250 g ai/ha, preemergence, scale 0 (no effect) to 100 (complete control), read-out: Johnsongrass plant response rating): 75%; pest or weed control at 31 g/ha (johnsongrass; Preemergence, 31 g ai/ha, scale 0 to 100, 0 no effect, 100 complete control, read-out: Plant response rating, Johnsongrass): 0%; pest or weed control at 125 g/ha (large (Lg) crabgrass; [7]): 100%; pest or weed control at 500 g/ha (large (Lg) crabgrass; [8]): 100%; pest or weed control at 125 g/ha (velvetleaf [1]; [7]): 100%; pest or weed control at 500 g/ha (velvetleaf [1]; [8]): 100%; pest or weed control at 125 g/ha (pigweed [2]; [7]): 90%; pest or weed control at 500 g/ha (pigweed [2]; [8]): 100%; Corn plant response rating (crop injury, 0 = no effect, 100 = complete kill) at 125 g/ha (corn; [7]): 30%; plant injury at 500 g/ha (corn; 500 g ai/ha, 0 to 100 scale, 0 no effect, 100 complete control, read-out: Plant response rating Corn): 50%; pest or weed control at 125 g/ha (pigweed [3]; 125 g ai/ha, postemergence, read-out: Plant response rating (0 to 100), Pigweed): 100%; pest or weed control at 250 g/ha (pigweed [3]; 250 g ai/ha, postemergence, read-out: Plant response rating (0 to 100), Pigweed): 100%; pest or weed control at 31 g/ha (pigweed [3]; Postemergence, 31 g ai/ha, scale 0 to 100 (0 no effect, 100 complete control), 13 to 15 days, read-out: Plant response rating, Pigweed): 100%; pest or weed control at 62 g/ha (pigweed [3]; Postemergence, 62 g ai/ha, scale 0 to 100 (0 no effect, 100 complete control), read-out: Plant response rating, Pigweed): 100%; pest or weed control at 62 g/ha (ragweed [4]; 62 g ai/ha, preemergence, scale 0 (no effect) to 100 (complete control), read-out: Ragweed plant response rating): 0%; pest or weed control at 125 g/ha (ragweed [4]; 125 g ai/ha, preemergence, scale 0 (no effect) to 100 (complete control), read-out: Ragweed plant response rating): 5%; pest or weed control at 250 g/ha (ragweed [4]; 250 g ai/ha, preemergence, scale 0 (no effect) to 100 (complete control), read-out: Ragweed plant response rating): 40%; pest or weed control at 31 g/ha (ragweed [4]; Preemergence, 31 g ai/ha, scale 0 to 100, 0 no effect, 100 complete control, read-out: Plant response rating, Ragweed): 0%; pest or weed control at 125 g/ha (ragweed [5]; 125 g ai/ha, postemergence, read-out: Plant response rating (0 to 100), Ragweed): 55%; pest or weed control at 250 g/ha (ragweed [5]; 250 g ai/ha, postemergence, read-out: Plant response rating (0 to 100), Ragweed): 60%; pest or weed control at 31 g/ha (ragweed [5]; Postemergence, 31 g ai/ha, scale 0 to 100 (0 no effect, 100 complete control), 13 to 15 days, read-out: Plant response rating, Ragweed): 50%; pest or weed control at 62 g/ha (ragweed [5]; Postemergence, 62 g ai/ha, scale 0 to 100 (0 no effect, 100 complete control), read-out: Plant response rating, Ragweed): 55%; pest or weed control at 125 g/ha (velvetleaf [6]; 125 g ai/ha, postemergence, read-out: Plant response rating (0 to 100), Velvetleaf): 85%; pest or weed control at 250 g/ha (velvetleaf [6]; 250 g ai/ha, postemergence, read-out: Plant response rating (0 to 100), Velvetleaf): 85%; pest or weed control at 31 g/ha (velvetleaf [6]; Postemergence, 31 g ai/ha, scale 0 to 100 (0 no effect, 100 complete control), 13 to 15 days, read-out: Plant response rating, Velvetleaf): 40%; pest or weed control at 62 g/ha (velvetleaf [6]; Postemergence, 62 g ai/ha, scale 0 to 100 (0 no effect, 100 complete control), read-out: Plant response rating, Velvetleaf): 50%; pest or weed control at 62 g/ha (giant foxtail; 62 g ai/ha, preemergence, scale 0 (no effect) to 100 (complete control), read-out: Foxtail, Giant plant response rating): 80%; pest or weed control at 125 g/ha (giant foxtail; 125 g ai/ha, preemergence, scale 0 (no effect) to 100 (complete control), read-out: Foxtail, Giant plant response rating): 98%; pest or weed control at 250 g/ha (giant foxtail; 250 g ai/ha, preemergence, scale 0 (no effect) to 100 (complete control), read-out: Foxtail, Giant plant response rating): 100%; pest or weed control at 31 g/ha (giant foxtail; Preemergence, 31 g ai/ha, scale 0 to 100, 0 no effect, 100 complete control, read-out: Plant response rating, Foxtail, Giant): 40%; pest or weed control at 125 g/ha (morningglory; [7]): 20%; pest or weed control at 500 g/ha (morningglory; [8]): 70%; plant injury at 125 g/ha (wheat; 125 g ai/ha, 0 to 100 scale where 0 is no effect and 100 is complete control, read-out: Plant response rating, Wheat): 30%; plant injury at 500 g/ha (wheat; 500 g ai/ha, 0 to 100 scale, 0 no effect, 100 complete control, read-out: Plant response rating Wheat): 50%; pest or weed control at 125 g/ha (galium; 125 g ai/ha, postemergence, read-out: Plant response rating (0 to 100), Galium): 90%; pest or weed control at 250 g/ha (galium; 250 g ai/ha, postemergence, read-out: Plant response rating (0 to 100), Galium): 98%; pest or weed control at 31 g/ha (galium; Postemergence, 31 g ai/ha, scale 0 to 100 (0 no effect, 100 complete control), 13 to 15 days, read-out: Plant response rating, Galium): 65%; pest or weed control at 62 g/ha (galium; Postemergence, 62 g ai/ha, scale 0 to 100 (0 no effect, 100 complete control), read-out: Plant response rating, Galium): 80%; plant injury at 62 g/ha (soybean; 62 g ai/ha, preemergence, scale 0 (no effect) to 100 (complete control), read-out: Soybean plant response rating): 40%; plant injury at 125 g/ha (soybean; 125 g ai/ha, preemergence, scale 0 (no effect) to 100 (complete control), read-out: Soybean plant response rating): 60%; plant injury at 250 g/ha (soybean; 250 g ai/ha, preemergence, scale 0 (no effect) to 100 (complete control), read-out: Soybean plant response rating): 98%; plant injury at 31 g/ha (soybean; Preemergence, 31 g ai/ha, scale 0 to 100, 0 no effect, 100 complete control, read-out: Plant response rating, Soybean): 15%

— patent US9695155B2, “Herbicidal substituted pyrimidinyloxy benzene compounds” (E. I. DU PONT DE NEMOURS AND COMPANY, priority 2013, dated 2017)
